Data on 58 compounds can be found in patent US9718790B2, “Triazine derivative and pharmaceutical composition having an analgesic activity comprising the same” (SHIONOGI & CO., LTD., priority 2010, dated 2017).

The target of one experiment is human P2X3 receptor (Homo sapiens (Human), UniProt P56373). The experiment in a line: Evaluation of human P2X3 receptor inhibitory activity (Fluo-3 calcium fluorescence, FDSS 3000, ATP stimulation).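 Further: stimulus was 50 nM ATP with fluorescence followed for 3 min, and the response per well was peak post-ATP fluorescence divided by the reading at measurement start.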 The class given is cell-based. The conditions noted are these: C6BU-1 cells stably expressing human P2X3 receptor.
Sequence of human P2X3 receptor (P56373 whole entry): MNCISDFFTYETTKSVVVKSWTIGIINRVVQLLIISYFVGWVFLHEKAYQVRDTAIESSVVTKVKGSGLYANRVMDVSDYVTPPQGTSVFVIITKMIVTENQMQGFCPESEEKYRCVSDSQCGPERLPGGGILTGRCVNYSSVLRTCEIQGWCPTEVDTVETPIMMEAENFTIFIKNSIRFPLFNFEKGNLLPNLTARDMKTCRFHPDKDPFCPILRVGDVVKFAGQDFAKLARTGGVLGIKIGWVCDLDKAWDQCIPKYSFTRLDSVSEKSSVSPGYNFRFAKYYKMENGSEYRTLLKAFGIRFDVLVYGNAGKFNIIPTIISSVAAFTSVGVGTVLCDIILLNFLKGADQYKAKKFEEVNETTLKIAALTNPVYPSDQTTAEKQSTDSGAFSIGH
As usually defined, the IC50 is the concentration that inhibits the measured activity by half. In the case of `COC(=O)[C@H](C)[C@H](C)n1c(=O)[nH]/c(=N\c2ccc3nc(C)ccc3c2)n(Cc2ccc(Cl)cc2)c1=O` [Compound I-1322], the concentration for half-maximal inhibition (IC50) was 20 nM.
On the same count and under the same terms, the figure for `O=c1[nH]/c(=N\c2ccc3nc(C(F)(F)F)sc3c2)n(Cc2ccc(Cl)cc2)c(=O)n1C[C@H](O)CO` [Compound I-2168] is 57 nM; for `C[C@@H](Oc1ccc(/N=c2\[nH]c(=O)n(CCC(=O)O)c(=O)n2Cc2ccc(Cl)cc2)cc1)C(F)(F)F` [Compound I-1908] it is 70 nM.
The same measure, in the same setting: the figure for `COC(=O)[C@@H](C)[C@@H](C)n1c(=O)[nH]/c(=N\c2ccc(OC(C)C)c(F)c2)n(Cc2ccc(Cl)cc2)c1=O` [Compound I-1315] is 40 nM; for `COC(=O)[C@@H](C)[C@@H](C)n1c(=O)[nH]/c(=N\c2ccc(OCC3CC3)cc2)n(Cc2ccc(C)cc2)c1=O` [Compound I-1314] it is 59 nM; for `C=Cc1cc(/N=c2\[nH]c(=O)n(C[C@H](C)C(=O)O)c(=O)n2Cc2ccc(C)cc2)ccc1OCC` [Compound I-1194] it is 31 nM.
The same measure, in the same setting: the figure for `CC(C)Oc1ccc(/N=c2\[nH]c(=O)n([C@H](C)[C@H](C)C(=O)O)c(=O)n2Cc2ccc(Cl)cc2)cc1Cl` [Compound I-1342] is 10 nM.
As for `CC(C)Oc1ccc(/N=c2\[nH]c(OCC(=O)NC(CO)CO)nc(=O)n2Cc2ccc(Cl)cc2)cc1F` [Compound I-0584], the IC50 was determined as 248 nM.
On to `CC(C)Oc1ccc(/N=c2\[nH]c(=O)n(C[C@@H](O)CO)c(=O)n2Cc2ccc(Cl)cc2)cc1Cl` [Compound I-0616], for which the IC50 is 10 nM.
Take `C[C@@H](Oc1ccc(/N=c2\[nH]c(=O)n(CC(=O)NCCO)c(=O)n2Cc2ccc(Cl)cc2)cc1)C(F)(F)F` [Compound I-1999]: the IC50 amounted to 28 nM.
Same read-out and setting: the figure for `CCOC(=O)CCn1c(=O)[nH]/c(=N\c2ccc(OC3CCC3)cc2)n(Cc2ccc(C)cc2)c1=O` [Compound I-1282] is 4 nM.
The same measure, in the same setting: the figure for `CCC(Cn1c(=O)[nH]/c(=N\c2ccc(OC(C)C)c(C)c2)n(Cc2ccc(Cl)cc2)c1=O)C(=O)OC(C)(C)C` (stereo not shown) [Compound I-0701] is 35 nM.
`Cc1ccc(/N=c2\[nH]c(=O)n(C[C@H](C)C(=O)O)c(=O)n2Cc2ccc(Cl)cc2)cc1Cl` [Compound I-0696]: the IC50 was 129 nM.
On the same count and under the same terms, the figure for `COc1cc(Cn2c(=O)[nH]/c(=N\c3ccc(OC(C)C)c(F)c3)n(Cc3ccc(Cl)cc3)c2=O)ccn1` [Compound I-0642] is 5 nM; for `CCn1c(=O)[nH]/c(=N\c2ccc(Oc3nc(C(=O)O)co3)cc2)n(Cc2ccc(Cl)cc2)c1=O` [Compound I-2190] it is 33 nM; for `Cc1ccc(Cn2c(=O)n([C@@H](C)[C@@H](C)C(=O)O)c(=O)[nH]/c2=N\c2ccc(OC3CCC3)cc2)cc1` [Compound I-1392] it is 18 nM.
As to `COC(=O)[C@H](C)[C@H](C)n1c(=O)[nH]/c(=N\c2ccc(N3CCCCC3)cc2)n(Cc2ccc(Cl)cc2)c1=O` [Compound I-1380], the IC50 was 26 nM.
With `CCn1c(=O)[nH]/c(=N\c2ccc3oc(C)c(CC(=O)O)c3c2)n(Cc2ccc(Cl)cc2)c1=O` [Compound I-2170], the IC50 was determined as 819 nM.
On to `CCn1c(=O)[nH]/c(=N\c2ccc(Oc3cncc(C(=O)OC)c3)cc2)n(CC2CCC3(CC2)CC3)c1=O` [Compound I-2173], for which the half-maximal inhibitory concentration (IC50) was 12 nM.
As to `Cc1ccc(Cn2c(=O)n([C@H](C)[C@H](C)C(=O)O)c(=O)[nH]/c2=N\c2ccc(N3CCCCC3)cc2)cc1` [Compound I-1459], the IC50 was found to be 34 nM.
The same measure, in the same setting: the figure for `CCn1c(=O)[nH]/c(=N\c2ccc(Oc3ccc(C(=O)O)o3)cc2)n(Cc2ccc(Cl)cc2)c1=O` [Compound I-2152] is 41 nM.
With `CCOC(=O)OC(=O)c1ccc(Oc2ccc(/N=c3\[nH]c(=O)n(CC)c(=O)n3Cc3ccc(C)cc3)cc2)cc1` [Compound I-2068], the IC50 turned out to be 16 nM.
Take `Cc1ccc(Cn2c(=O)n(CCC(=O)O)c(=O)[nH]/c2=N\c2cccc(Cl)c2)cc1` [Compound I-2047]: the 50% inhibitory concentration (IC50) came to 384 nM.
In the case of `Cc1ccc(Cn2c(=O)n(C[C@H](C)C(=O)O)c(=O)[nH]/c2=N\c2cnc(Oc3ccccc3)c(Cl)c2)cc1` [Compound I-1476], the IC50 turned out to be 262 nM.
On to `CC[C@@H](CC(=O)O)n1c(=O)[nH]/c(=N\c2ccc(OC(C)C)c(C)c2)n(Cc2ccc(Cl)cc2)c1=O` [Compound I-0798], for which the IC50 is 465 nM.
Regarding `Cc1ccc(Cn2c(=O)n([C@H](C)[C@H](C)C(=O)O)c(=O)[nH]/c2=N\c2ccc(OCC3CC3)cc2)cc1` [Compound I-1341], the IC50 was 36 nM.
For the compound `Cc1cc(/N=c2\[nH]c(=O)n(C(C)(C)CC(=O)O)c(=O)n2Cc2ccc(Cl)cc2)ccc1OC(C)C` [Compound I-0804], the IC50 was determined as 132 nM.
With `COC(=O)[C@H](C)[C@H](C)n1c(=O)[nH]/c(=N\c2ccc(CC(C)C)c(Cl)c2)n(Cc2ccc(Cl)cc2)c1=O` [Compound I-1435], the IC50 was 61 nM.
Same read-out and setting: the figure for `COC(=O)[C@H](C)[C@H](C)n1c(=O)[nH]/c(=N\c2ccc(OCC(C)C)cc2)n(Cc2ccc(Cl)cc2)c1=O` [Compound I-1329] is 49 nM.

Still in this experiment, the particulars now being: C6BU-1 cells stably expressing human P2X3 receptor, Fluo-3 fluorescence, FDSS 3000.
With `CCOC(=O)CCCn1c(=O)[nH]/c(=N\c2ccc3nc(CC)sc3c2)n(Cc2ccc(C)cc2)c1=O` [Compound I-1629], the IC50 stood at 4 nM.
Same read-out and setting: the figure for `COC(=O)[C@@H](C)Cn1c(=O)[nH]/c(=N\c2ccc(C3CCCCC3)cc2)n(Cc2ccc(C)cc2)c1=O` [Compound I-1087] is 71 nM.
The same measure, in the same setting: the figure for `CCCc1cc2cc(/N=c3\[nH]c(=O)n([C@@H](C)[C@@H](C)C(=O)OC)c(=O)n3Cc3ccc(Cl)cc3)ccc2o1` [Compound I-1817] is 52 nM; for `Cc1cc(/N=c2\[nH]c(=O)n(CC3(CO)COC3)c(=O)n2Cc2ccc(Cl)cc2)ccc1OC(C)C` [Compound I-0906] it is 8 nM.
`CCOC(=O)CCn1c(=O)[nH]/c(=N\c2ccc(OCC3CC3)cc2)n(Cc2ccc(C)cc2)c1=O` [Compound I-1146]: the half-maximal inhibitory concentration (IC50) is 9 nM.
Take `CCc1oc2ccc(/N=c3\[nH]c(=O)n(C[C@@H](C)NC(C)=O)c(=O)n3Cc3ccc(Cl)cc3)cc2c1C` [Compound I-1673]: the IC50 is 14 nM.
Still for that read-out and setting: the figure for `COC(=O)[C@@H](C)Cn1c(=O)[nH]/c(=N\c2ccc(O[C@H](C)C(F)(F)F)cc2)n(Cc2ccc(Cl)cc2)c1=O` [Compound I-0942] is 22 nM; for `Cc1ccc(Cn2c(=O)n(CCC(=O)O)c(=O)[nH]/c2=N\c2ccc(OC3CC3)c(Cl)c2)cc1` [Compound I-1608] it is 100 nM; for `CC(C)n1ncc2cc(/N=c3\[nH]c(=O)n([C@@H](C)[C@@H](C)C(=O)O)c(=O)n3Cc3ccc(Cl)cc3)ccc21` [Compound I-1744] it is 242 nM.
On the same count and under the same terms, the figure for `COC(=O)CCn1c(=O)[nH]/c(=N\Nc2ccc(OC)cc2)n(Cc2ccc(C)cc2)c1=O` [Compound I-1801] is 687 nM.
For the compound `CC(C)Oc1ccc(/N=c2\[nH]c(=O)n(C[C@H](C)C(=O)O)c(=O)n2Cc2ccc(Cl)cc2)cc1C#N` [Compound I-0960], the half-maximal inhibitory concentration (IC50) was found to be 70 nM.
For the compound `CNC(=O)Cn1c(=O)[nH]/c(=N\c2ccc(Oc3ccc(O)nc3)cc2)n(Cc2ccc(Cl)cc2)c1=O` [Compound I-1901], the IC50 amounted to 15 nM.

Still in this experiment, the particulars now being: human P2X3 receptor, Test Example 1.
Turning to `O=c1[nH]/c(=N\c2ccc(Oc3ccon3)cc2)n(Cc2ccc(Cl)cc2)c(=O)n1C[C@@H](O)CO` [Compound I-2408], the half-maximal inhibitory concentration (IC50) is 14 nM.
Regarding `O=c1[nH]/c(=N\c2ccc(Oc3noc(C4CC4)n3)cc2)n(Cc2ccc(Cl)cc2)c(=O)n1CC(CO)CO` [Compound I-2595], the IC50 was found to be 27 nM.
In the case of `CCn1c(=O)[nH]/c(=N\c2ccc(Oc3cccc(C#N)n3)c(OC)c2)n(Cc2ccc(Cl)cc2)c1=O` [Compound I-2387], the IC50 was 2 nM.
With `Cc1ccc(Cn2c(=O)n([C@H](C)CC(=O)O)c(=O)[nH]/c2=N\c2ccc(OC(C)C)c(Cl)c2)cc1` [Compound I-0878], the IC50 stood at 22 nM.
On to `C[C@H](C(=O)O)n1c(=O)[nH]/c(=N\c2ccc(Oc3ccon3)cc2)n(Cc2ccc(Cl)cc2)c1=O` [Compound I-2486], for which the IC50 worked out at 381 nM.
Still for that read-out and setting: the figure for `CC1(C)OC[C@H](Cn2c(=O)[nH]/c(=N\c3ccc(Oc4ccon4)cc3)n(Cc3ccc(Cl)cc3)c2=O)O1` [Compound I-2289] is less than 4 nM; for `C[C@H](CO)n1c(=O)[nH]/c(=N\c2ccc(Oc3ccon3)cc2)n(Cc2ccc(Cl)cc2)c1=O` [Compound I-2488] it is 37 nM; for `CCn1c(=O)[nH]/c(=N\c2ccc(Oc3cncc(C(N)=O)c3)cc2)n(Cc2ccc(Cl)cn2)c1=O` [Compound I-2236] it is 62 nM.
In the case of `CCn1c(=O)[nH]/c(=N\c2ccc(Oc3cc(C(=O)O)sn3)cc2)n(C[C@H]2CC[C@H](C)CC2)c1=O` [Compound I-2349], the 50% inhibitory concentration (IC50) worked out at 4 nM.
Turning to `CC[C@@H](C)Oc1ccc(/N=c2\[nH]c(=O)n(C[C@H](C)C(=O)OC)c(=O)n2Cc2ccc(C)cc2)cc1` [Compound I-0824], the half-inhibitory concentration (IC50) is 18 nM.
Still for that read-out and setting: the figure for `Cc1ccc(Cn2c(=O)n(C)c(=O)[nH]/c2=N\c2ccc(Oc3cncc(C(N)=O)n3)cc2)cc1` [Compound I-2473] is 8 nM; for `NC(=O)Cn1c(=O)[nH]/c(=N\c2ccc(Oc3nccs3)cc2)n(Cc2ccc(Cl)cc2)c1=O` [Compound I-2644] it is 17 nM; for `COC(=O)[C@@H](C)Cn1c(=O)[nH]/c(=N\c2ccc(OCC3CC3)cc2)n(Cc2ccc(Cl)cc2)c1=O` [Compound I-0833] it is 15 nM.
Still for that read-out and setting: the figure for `C=COc1ccc(N(C)c2nc(=O)n(C[C@H](C)C(=O)OC)c(=O)n2Cc2ccc(C)cc2)cc1Cl` [Compound I-1550] is 833 nM; for `Cc1ccc(Cn2c(=O)n(CC3(C(=O)O)COC3)c(=O)[nH]/c2=N\c2ccc(OC(C)C)c(Cl)c2)cc1` [Compound I-1495] it is 26 nM.
The same measure, in the same setting: the figure for `CCn1c(SC)n/c(=N\c2ccc(Oc3cncc(C(=O)OC)c3)cc2)n(Cc2ccc(Cl)cc2)c1=O` [Compound I-2264, 1-(4-chlorobenzyl)-3-ethyl-4-methylthio-6-[4-(5-methoxycarbonyl-3-pyridyloxy)phenylimino]-1,3,5-triazine-2-(1H)-one] is 558 nM.
For the compound `Cn1ccc(Oc2ccc(/N=c3\[nH]c(=O)n(C[C@H](O)CO)c(=O)n3Cc3ccc(Cl)cc3)cc2)n1` [Compound I-2412], the concentration for half-maximal inhibition (IC50) amounted to 84 nM.
